The values below come from ChEMBL document CHEMBL1135278, “Thiophene derivatives: a new series of potent norepinephrine and serotonin reuptake inhibitors” (Bioorg Med Chem Lett, 2002).

The target in test [1] is Norepinephrine transporter (Rattus norvegicus, UniProt Q9WTR4). Kind of test: Inhibition of [3H]-NE reuptake at Norepinephrine transporter in rat parietal/occipital cortex.
Test [2] deals with Sodium-dependent serotonin transporter (Rattus norvegicus, UniProt P31652). Description: Inhibition of [3H]5-HT reuptake at serotonin transporter in rat mid brain.
For test [3], the target named is Sodium-dependent dopamine transporter (Rattus norvegicus, UniProt P23977). Kind of test: Inhibition of [3H]DA reuptake at dopamine transporter in rat striatum. Format: tissue-based.
Test [4] addresses Monoamine transporters; Norepinephrine & serotonin (Rattus norvegicus) (UniProt P31652+Q9WTR4). Description: Relative reuptake inhibition at norepinephrine and serotonin transporters. It counts as protein assay.

Chain of Sodium-dependent serotonin transporter (P31652 whole entry): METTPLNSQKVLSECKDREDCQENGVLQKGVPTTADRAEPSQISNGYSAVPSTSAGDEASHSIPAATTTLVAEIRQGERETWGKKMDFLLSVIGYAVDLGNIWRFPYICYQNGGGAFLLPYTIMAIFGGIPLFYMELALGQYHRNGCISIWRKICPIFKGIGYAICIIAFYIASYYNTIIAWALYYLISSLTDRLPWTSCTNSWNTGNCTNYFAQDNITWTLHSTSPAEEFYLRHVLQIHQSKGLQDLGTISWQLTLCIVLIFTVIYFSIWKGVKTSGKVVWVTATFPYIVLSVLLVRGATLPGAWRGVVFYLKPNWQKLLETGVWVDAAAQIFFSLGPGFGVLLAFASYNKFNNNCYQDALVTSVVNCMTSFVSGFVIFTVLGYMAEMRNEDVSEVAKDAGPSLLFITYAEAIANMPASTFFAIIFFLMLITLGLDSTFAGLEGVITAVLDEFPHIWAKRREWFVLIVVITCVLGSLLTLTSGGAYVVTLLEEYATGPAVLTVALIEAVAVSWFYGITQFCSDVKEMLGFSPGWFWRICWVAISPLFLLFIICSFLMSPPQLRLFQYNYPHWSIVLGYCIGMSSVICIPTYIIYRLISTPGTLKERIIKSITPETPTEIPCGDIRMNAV
Chain of Sodium-dependent dopamine transporter (P23977 whole entry): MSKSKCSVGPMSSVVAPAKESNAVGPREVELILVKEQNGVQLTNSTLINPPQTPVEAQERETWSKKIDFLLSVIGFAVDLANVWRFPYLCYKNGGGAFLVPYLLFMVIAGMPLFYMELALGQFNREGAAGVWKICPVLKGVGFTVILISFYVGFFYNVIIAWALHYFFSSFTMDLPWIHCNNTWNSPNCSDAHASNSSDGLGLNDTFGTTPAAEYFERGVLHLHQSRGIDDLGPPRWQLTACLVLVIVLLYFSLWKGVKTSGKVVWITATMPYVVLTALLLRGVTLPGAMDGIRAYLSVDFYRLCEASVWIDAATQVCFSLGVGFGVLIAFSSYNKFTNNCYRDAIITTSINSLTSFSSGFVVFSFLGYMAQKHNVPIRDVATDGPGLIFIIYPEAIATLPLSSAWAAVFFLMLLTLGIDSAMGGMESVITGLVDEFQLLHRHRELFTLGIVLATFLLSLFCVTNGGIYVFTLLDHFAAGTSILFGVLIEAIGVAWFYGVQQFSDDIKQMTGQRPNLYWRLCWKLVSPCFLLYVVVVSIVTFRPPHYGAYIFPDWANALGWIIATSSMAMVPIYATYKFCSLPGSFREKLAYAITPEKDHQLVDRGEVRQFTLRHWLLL
Chain of Norepinephrine transporter (Q9WTR4 whole entry): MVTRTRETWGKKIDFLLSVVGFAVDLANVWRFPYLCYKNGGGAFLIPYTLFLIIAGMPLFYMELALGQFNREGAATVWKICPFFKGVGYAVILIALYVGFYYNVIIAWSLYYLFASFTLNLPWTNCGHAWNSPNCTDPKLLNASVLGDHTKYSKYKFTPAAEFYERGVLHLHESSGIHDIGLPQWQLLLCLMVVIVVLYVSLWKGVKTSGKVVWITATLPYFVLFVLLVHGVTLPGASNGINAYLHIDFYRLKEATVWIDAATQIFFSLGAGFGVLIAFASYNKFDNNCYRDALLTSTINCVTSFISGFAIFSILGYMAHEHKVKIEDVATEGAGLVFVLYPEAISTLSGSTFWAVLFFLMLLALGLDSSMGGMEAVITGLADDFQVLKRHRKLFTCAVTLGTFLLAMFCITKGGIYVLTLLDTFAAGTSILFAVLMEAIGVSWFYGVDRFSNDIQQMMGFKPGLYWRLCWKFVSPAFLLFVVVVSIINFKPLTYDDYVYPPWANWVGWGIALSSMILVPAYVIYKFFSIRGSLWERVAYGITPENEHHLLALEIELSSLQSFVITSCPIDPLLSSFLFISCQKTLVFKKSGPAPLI

Take `COC(=O)C1C2CC3CCC1N3C/C2=C\c1cccs1` (stereo unspecified): the Ki in test [1] is 26.4 nM; in test [2] it was 2050 nM; in test [3], 268 nM.
The like results for `CC(=O)NCC1C2CC3CCC1N3C/C2=C\c1cccs1` (stereo unspecified) were, in that order, 2430 nM, 13300 nM and 6140 nM.
With `CC(C)OC(=O)C1C2CC3CCC1N3C/C2=C\c1cccs1` (stereo unspecified), the Ki in test [1] amounted to 52.3 nM; in test [2], 1150 nM; in test [3] it was 428 nM.
The corresponding values for `CC(C)(C)OC(=O)NCC1C2CC3CCC1N3C/C2=C\c1cccs1` (stereo unspecified) are 1700 nM, 2360 nM and 2300 nM.
For the compound `CC(C)(C)C(=O)OCC1C2CC3CCC1N3C/C2=C\c1cccs1` (stereo unspecified), the Ki in test [1] turned out to be 1180 nM; in test [2], 168 nM; in test [3] it was 1020 nM.
The like results for `COC(=O)C1C2CC3CCC1N3C/C2=C\c1ccc(C)s1` (stereo unspecified) were, in that order, 4.9 nM, 179 nM and 403 nM.
Turning to `COC(=O)C1C2CC3CCC1N3C/C2=C\c1ccc(I)s1` (stereo unspecified), the Ki in test [1] is 5 nM; in test [2], 29 nM; in test [3], 368 nM.
Regarding `O=C(OCC1C2CC3CCC1N3C/C2=C\c1ccc(I)c(Cl)c1)c1ccccc1` (stereo unspecified), in test [2], the Ki came to 0.06 nM.
As for `O=C(OCC1C2CC3CCC1N3C/C2=C\c1cccs1)c1ccccc1` (stereo unspecified), the Ki in test [1] stood at 894 nM; in test [2], 1.53 nM; in test [3], 1750 nM.
`CC(=O)OCC1C2CC3CCC1N3C/C2=C\c1cccs1` (stereo unspecified): the figures for the Ki in test [1], in test [2] and in test [3] were 283 nM, 1530 nM and 610 nM, respectively.
With `O=C(OCC1C2CC3CCC1N3C/C2=C\c1cccs1)c1ccc2ccccc2c1` (stereo unspecified), the Ki came out at 1230 nM in test [1], 169 nM in test [2] and 1680 nM in test [3].
With `OCC1C2CC3CCC1N3C/C2=C\c1cccs1` (stereo unspecified), the Ki in test [1] was about 300 nM; in test [2], about 1000 nM; in test [3] it was about 3000 nM. The Ratio in test [4] amounted to 0.3.
As for `O=C(OCC1C2CC3CCC1N3C/C2=C\c1ccc(I)cc1)c1ccccc1` (stereo unspecified), in test [2], affinity was put at a Ki of 0.1 nM.
